Laboratory results as given in publication PMC6235670, “An mTOR Signaling Modulator Suppressed Heterotopic Ossification of Fibrodysplasia Ossificans Progressiva” (Stem Cell Reports, 2018).

Assays:
[1] = test system: NOD/SCID mice transplanted with FOP-iMSCs
Description: (§1) MTOR s604 […]tt […]at […]
(§2) For X- ray images, mice were anesthetized with isoflurane (5% for induction, 2-3% for maintenance, Abbvie), immobilized and X-rayed using µFX-1000 (Fujifilm) or DX-50 (Faxitron Bioptics). µCT images were scanned using X-ray CT systems (inspeXio SMX-100CT, Shimadzu) and analyzed with TRI/3D-BON software (Ratoc System Engineering) according to the manufacturer's instructions. […]
Activin-A-induced HO model transplanted with FOP-iMSCs. FOP- (right leg) and resFOP-iMSCs (left leg) (4 x 10^6 cells, respectively) were transplanted into the gastrocnemius muscle of NOD/ShiJic-scid Jcl (NOD/SCID) mice (8 weeks, male, CLEA Japan) with C3H -DoxOn-hINHBA (5 x 10^5 cells), which can continuously expose Activin-A to the transplanted iMSCs in vivo ( Hino et al., 2015) . In the Dox-induced group, 1 mg/mL Dox (Sigma-Aldrich) was administered via drinking water with 10 mg/mL sucrose (Nacalai Tesque) for two weeks after transplantation. Compounds were intraperitoneally administered once a day, five times a week. Eight weeks after transplantation, the transplanted cells were harvested , fixed with 4% paraformaldehyde for 24 h, embedded in paraffin, and sectioned and stained with HE, von Kossa, Safranin O, human specific anti-Vimentin antibody and Collagen I antibody as previously described (Hino et al., 2015; Umeda et al., 2012; […]

BMP signaling (BRE-Luc) = test: BRE-Luc reporter assay in FOP-iMSCs; type: cell-based, human; conditions: activin A and compounds for 16 hr
Experimental: (§3) FOP-iMSCs transiently transfected with BRE-Luc (A) or CAGA-Luc (B) with CMV-Renilla were stimulated with activin A and compounds for 16 hr (A) or 3 hr (B). […] One day after siRNA transfection, chondrogenic induction with activin A was initiated, and after 7 days the cells were harvested. […] FOP-iMSCs cultured with 10% FBS were treated with 100 nM rapamycin (Rapa) or TAK 165 (TAK) for 2 hr, and the cells were harvested. […] 1 μM TAK, 1 μM CP (CP-724714, another selective ERBB2 inhibitor), or 10 nM Rapa were applied in the experiments.

mTOR signaling (p-S6) [2] = test: p-S6 western blotting during chondrogenic induction of FOP-iMSCs with activin A; type: cell-based, human; conditions: 1 µM
Experimental: Western blotting. SDS- PAGE and blotting with whole-cell lysates were performed by standard procedures.
Protein bands were detected with ECL Prime Western Blotting Detection Reagent (GE Healthcare) and visualized using BIO-RAD Molecular Imager® Chemi-DocTM XRS+ with Image LabTM software (Bio-Rad).
All data (relative intensity) were corrected by β-actin.
Antibodies for western blotting and immunostaining.
N ame Company Cat. No Concentration
Human Activin RIA/ALK-2 Antibody R&D Systems) AF637 1:100
Anti-human Vimentin antibody Abcam ab16700 1:40
Collagen I Antibody Novus NB600- 1:100
Anti-rabbit IgG, HRP-linked Antibody Cell Signaling #7074 1:10000 […]
2nd Goat anti-Rabbit IgG (H+L) Secondary Antibody, Invitrogen A-11008 1:100 antibody Alexa Fluor® 488 conjugate
Goat anti-Rabbit IgG (H+L) Secondary Antibody, Invitrogen A-21428 1:500

FOP-iMSCs = test: 2D chondrogenic induction of FOP-iMSCs with activin A (GAG, Alcian blue); type: cell-based, human; conditions: activin A, 7 days
BMP type I receptors = test system: BMP type I receptors; set-up: method as in Lewis and Prywes, 2013; conditions: ref Lewis and Prywes, 2013; cited from earlier work
[3] = test system: BMP-7-induced HO model mice (C57BL/6); test: BMP-7-induced HO model mice
Description: as §1
as §2, with “instructions. Four weeks after injection, the injected sites were harvested, fixed with 4% paraformaldehyde for 24 h, embedded in paraffin, and sectioned and stained” for “instructions.”
(§4) BMP-7-induced HO model mice. BMP -7 (2 µ g/mouse) was injected into the right gastrocnemius muscle of C57BL/6NJcl mice (6-8 weeks, male, CLEA Japan), and compounds were administered once a day, five times a week (intraperitoneal administration). Mice were analyzed 2 weeks after injection. […]

[4] = test system: TGF-β signaling (CAGA-Luc); test: CAGA-Luc reporter assay in FOP-iMSCs; type: cell-based, human; conditions: activin A and compounds for 3 hr
Experimental: as §3

ATDC5/FOP-ACVR1 cells = test: ALP assay (HTS and dose-response) in ATDC5/FOP-ACVR1; type: cell-based, mouse; conditions: Mus musculus, 72 h, read-out: IC50 (ALP assay)
Experimental: ATDC5/FOP-ACVR1 cells were plated in 96-well white plates (2,000 cells/well/40 μL, Corning) in DMEM/F-12 supplemented with 5% (v/v) FBS. Two hours after incubation at 37°C under 5% CO2, 10 μL of test compounds (final 1 μM) was added, and the assay plates were incubated at 37°C under 5% CO2. After 3 days of incubation, ALP activity was measured using an Amplite Colorimetric Alkaline Phosphatase Assay Kit (AAT Bioquest) according to the manufacturer's protocol.
Generation of ATDC5 stably expressing ACVR1. WT - or FOP-ACVR1 was inserted into doxycycline (Dox)- […]
(KW111/WT-ACVR1 or KW111/FOP-ACVR1). KW111/WT-ACVR1 or KW111/FOP-ACVR1 and PBaseII […]
FuGeneHD® (Promega) according to the manufacturer’s protocol, and the neomycin- resistant population (500 µg/mL) was selected. […]
HTS campaign and follow-up screens. […] After 3 days incubation, Alkaline Phosphatase activity (ALP) or AlamarBlue activity was measured using Amplite™ Colorimetric Alkaline Phosphatase Assay Kit (AAT Bioquest) or alamarBlue® Cell Viability Reagent (Thermo Fisher Scientific) according to the manufacturer’s protocol, respectively. […]
was measured on POWERSCAN4 (DS Pharma Biomedical) or EnVision® Multilabel Reader (PerkinElmer).
Inhibitory effects of the screened compounds are given as percent inhibition, which was calculated using the following equation: (1-([Abs of compound] - [Abs of Min])/([Abs of Max] - [Abs of Min]))× 100, where [Abs of Max] and [Abs of Min] are the mean Abs of DMSO control and 1 µM DMH-1, respectively. The Z’ factor, which is widely used as a measure of the assay quality of each plate, was calculated using the following equation: Z’ factor = 1 - 3 × ([SD of Max] + [SD of Min])/([Abs of Max] - [Abs of Min]) (SI Appendix, Fig.
The S/B (signal-to-background) ratio was calculated using the following equation: ([Abs of Max]/[Abs of Min]) (SI Appendix, Fig. S3B). […]

mTOR signaling (p-S6) [5] = test: p-S6 western blotting in FOP-iMSCs cultured with 10% FBS; type: cell-based, human; conditions: 100 nM, 2 hr
Experimental: time point t = 24 h from t = 0 h, and relative cell migration was expressed as the ratio of the absolute cell migrations between the experimental and control groups by using CL-Quant software (Nikon Corp.).
Quantitative PCR analysis. Total RNA was purified with RNeasy Kit (Qiagen) and treated with DNase -one Kit (Qiagen) to remove genomic DNA. Total RNA (0.3 µg) was reverse transcribed for single-stranded cDNA using random primers and Superscript III reverse transcriptase (Thermo Fisher Scientific) according to the manufacturer’s instructions. Quantitative PCR was performed with Thunderbird SYBR qPCR Mix (TOYOBO) and analyzed with the StepOne real-time PCR system (Applied Biosystems). […]
Microarray experiments. 2D chondrogenic induction was performed in FOP-iMSCs stimulated with or without 100 ng/mL Activin-A, TAK 165, CP-724714 and Lapatinib. […] Raw CEL files were imported into GeneSpring GX 12.6.1 software (Agilent Technologies), and expression values were calculated with the RMA16 algorithm. […]
Protein bands were detected with ECL Prime Western Blotting Detection Reagent (GE Healthcare) and visualized using BIO-RAD Molecular Imager® Chemi-DocTM XRS+ with Image LabTM software (Bio-Rad). […]
GAG value. The GAG content was quantified in pellets with the Blyscan Glycosaminoglycan Assay Kit (Biocolor). The DNA content was quantified using PicoGreen dsDNA Quantitation Kit (Thermo Fisher […]

[6] = test system: healthy control iPSC (414C2)-derived iMSCs; test: Wound healing assay; conditions: 10 nM rapamycin or 1 µM TAK165, 24 h
C57BL/6 mice = test: Growth plate histology and normal bone µCT in compound-administered BMP-7-injected mice; conditions: 5 mg/kg i.p., 2 weeks
Experimental: as §1
System Engineering) according to the manufacturer's instructions. […]
as §4
Histological analysis of growth plates chondrocytes. Knee joints were obtained from BMP-7-injected and test compounds-administrated C57BL/6NJcl mice after 2 weeks treatment and fixed, paraffin-embedded, and sectioned and stained with Safranin O. The thickness of the proliferative and hypertrophic zones of the growth plate were measured using ImageJ software on images obtained using a Keyence microscope (Keyence A merica). The proliferative zone was defined as the region with flat chondrocytes stacked in longitudinal columns, and the hypertrophic zone as the region where chondrocytes are enlarged in size and form clusters.
Normal bone µCT. The left legs of mice were obtained from BMP -7-injected and test -compounds administrated C57BL/6NJcl mice after 2 weeks treatment. The region of interest (ROI) included the femur- tibia (entire femur in addition to the part of tibia above tibia/fibular junction). […]
Tests of side effects of direct and indirect mTOR inhibitors. Related

Row | SMILES | body weight change compared with vehicle group ([1]; 5 mg/kg i.p.) | hypertrophic chondrocytes and von Kossa- and COL1-positive bone regions ([1]; 5 mg/kg i.p.) | HO derived from FOP-iMSCs (heterotopic bone volume) ([1]; 5 mg/kg i.p. once daily, five times a week, 8 weeks after transplantation) | BRE-Luc (BMP-specific luciferase reporter) (BMP signaling (BRE-Luc)) | p-S6 levels from 2 hr after treatment (mTOR signaling (p-S6) [2]) | inhibition of glycosaminoglycan (GAG) production (FOP-iMSCs; 1 μM) | suppression of chondrogenic induction (GAG), dose dependence (FOP-iMSCs) | inhibition of BMP type I receptors (BMP type I receptors) | body weight change compared to vehicle group ([3]; i.p. for 2 weeks, n=5) | BMP-7-induced HO (heterotopic bone volume) ([3]; i.p. once daily 5 times a week for 2 weeks) | # of HO (> 20 mm3): number of mice harboring HO ([3]; i.p. once daily 5 times a week for 2 weeks, N = 5) | CAGA-Luc (TGF-β-responsive luciferase reporter) [4] | IC50 (ATDC5/FOP-ACVR1 cells) [nM] | p-S6 levels (direct mTOR inhibition) (mTOR signaling (p-S6) [5]) | Relative cell migration (wound healing assay) vs DMSO [6] | Bone Mineral Density (normal bone µCT) vs vehicle (C57BL/6 mice) | Bone volume (normal bone µCT, femur-tibia) vs vehicle (C57BL/6 mice) | Hypertrophic zone thickness of growth plate vs vehicle (C57BL/6 mice) | Proliferative zone thickness of growth plate vs vehicle (C57BL/6 mice)
1 | CN1CCN(CCOc2cc(OC3CCOCC3)c3c(Nc4c(Cl)ccc5c4OCO5)ncnc3c2)CC1 [AZD0530, saracatinib] | No significant differences | fewer | significantly suppressed | inhibited | significantly inhibited | potent inhibition | dose-dependent | inhibited | No significant differences | suppressed | 1/5 | inhibited | 4 | – | – | – | – | – | –
2 | CO[C@H]1C[C@@H]2CC[C@@H](C)[C@@](O)(O2)C(=O)C(=O)N2CCCC[C@H]2C(=O)O[C@H]([C@H](C)C[C@@H]2CC[C@@H](O)[C@H](OC)C2)CC(=O)[C@H](C)/C=C(\C)[C@@H](O)[C@@H](OC)C(=O)[C@H](C)C[C@H](C)/C=C/C=C/C=C/1C [rapamycin] | – | – | – | – | – | – | – | – | – | – | – | – | – | decreased | n.s. | n.s. | n.s. | n.s. | n.s.
